Reference: PMC8544286, “Screening and Identification of a Novel Anti-tuberculosis Compound That Targets Deoxyuridine 5′-Triphosphate Nucleotidohydrolase” (Frontiers in Microbiology, 2021)
≈ marks a conversion by molar mass, not a printed value. Like-named read-outs stand apart in the source and are kept apart here.

Key:
[1] = in vitro; format: cell-based; conditions: 24 h, CCK-8
Protocol: MRC-5, Vero E6, and Caco-2 cells were tested. […] Meanwhile, 2% DMSO was used as a negative control. After incubation for 24 h, 2-(2-methoxy-4-nitrophenyl)-3-(4-nitrophenyl)-5-(2,4-disulfophenyl)-2H-tetrazolium, monosodium salt (WST-8) was added. The experimental method referred to the kit instructions. All the experiments were repeated three times.

[2] = system: sensitive strain STB-FJ05060; assay: Microplate alamar blue assay (MABA), STB-FJ05060; format: cell-based; conditions: Mycobacterium tuberculosis, STBFJ05060, 168 h
[3] = biological target: T1, human dUTPase (Homo sapiens, UniProt P33316); assay: biochemical
[4] = system: M. tuberculosis standard strain H37Rv; assay: Microplate alamar blue assay (MABA), H37Rv; format: cell-based; conditions: Mycobacterium tuberculosis, 168 h
[5] = system: sensitive strain STB-FJ05349; assay: Microplate alamar blue assay (MABA), STB-FJ05349; format: cell-based; conditions: Mycobacterium tuberculosis, STBFJ05349, 168 h
[6] = biological target: T1, human dUTPase; assay: Surface plasmon resonance (SPR), human dUTPase; format: binding; conditions: human dUTPase on CM5 chip
[7] = biological target: M. tuberculosis dUTPase (Mt-dUTPase) (Mycobacterium tuberculosis, UniProt P9WNS5); format: biochemical
[8] = STB-FJ05060, MABA, 7 days at 37°C, read-out: MIC
[9] = H37Rv, MABA, 7 days at 37°C, read-out: MIC
[10] = STB-FJ05349, MABA, 7 days at 37°C, read-out: MIC

T1 sequence (P33316 other isoform, or with tags, fused parts or gaps): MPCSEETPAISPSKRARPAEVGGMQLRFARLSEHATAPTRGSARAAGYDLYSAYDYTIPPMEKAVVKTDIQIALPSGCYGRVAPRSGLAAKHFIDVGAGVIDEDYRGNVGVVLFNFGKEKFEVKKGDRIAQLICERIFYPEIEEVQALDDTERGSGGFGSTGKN
Sequence of M. tuberculosis dUTPase (Mt-dUTPase) (P9WNS5 whole entry): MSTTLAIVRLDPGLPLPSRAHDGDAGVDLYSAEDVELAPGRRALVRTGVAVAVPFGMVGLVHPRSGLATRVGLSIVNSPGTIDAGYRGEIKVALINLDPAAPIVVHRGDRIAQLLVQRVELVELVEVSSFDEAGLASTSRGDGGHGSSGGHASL

C=CCn1c(/C=C/c2ccccc2)nc2ccccc21 [F0414]
CC50 ([1]; African green monkey, Vero E6 cells): > 200 µM
CC50 ([1]; African green monkey, Vero E6 cells, approximate conversion of >200 μM): > 52 µg/mL
CC50 ([1]; human, Caco2 cells): > 200 µM
CC50 ([1]; human, Caco2 cells, approximate conversion of >200 μM): > 52 µg/mL
CC50 ([1]; human, MRC-5 cells): > 200 µM
CC50 ([1]; human, MRC-5 cells, approximate conversion of >200 μM): > 52 µg/mL
MIC [2, 8]: 4 µg/mL (≈ 15.4 µM)
IC50 ([3]; luminescence readout): 3.18 ± 0.96 µM
IC50 ([3]; same IC50 printed in μg/mL): 3.19 µM
MIC [4, 9]: 4 µg/mL (≈ 15.4 µM)
MIC [5, 10]: 4 µg/mL (≈ 15.4 µM)
SPR binding to human dUTPase [6]: almost no RU signals

NNC(=O)c1ccncc1 [Isoniazid]
MIC [2, 8]: 0.5 µg/mL (≈ 3.65 µM)
MIC [4, 9]: 0.25 µg/mL (≈ 1.82 µM)
MIC [5, 10]: 0.5 µg/mL (≈ 3.65 µM)

CO[C@H]1/C=C/O[C@@]2(C)Oc3c(C)c(O)c4c(O)c(c(/C=N/N5CCN(C)CC5)c(O)c4c3C2=O)NC(=O)/C(C)=C\C=C\[C@H](C)[C@H](O)[C@@H](C)[C@@H](O)[C@@H](C)[C@H](OC(C)=O)[C@@H]1C [Rifampicin]
MIC [2]: 0.5 µg/mL (≈ 0.608 µM)
MIC ([4]; H37RV): 0.25 µg/mL (≈ 0.304 µM)
MIC [5]: 0.5 µg/mL (≈ 0.608 µM)

O=c1ccn([C@H]2C[C@H](O)[C@@H](COC(c3ccccc3)(c3ccccc3)c3ccccc3)O2)c(=O)[nH]1 [Trt-dU]
IC50 ([7]; compound pre-incubated with enzyme 1 h at room temperature, luminescence readout): 1.04 ± 0.08 µM
IC50 (Mt-dUTPase) ([7]; same IC50 printed in μg/ml): 0.49 ± 0.02 µg/mL (≈ 1.04 µM)
